Inhibition data for 39 compounds are collected here from US12428415B2, “Matriptase 2 inhibitors and uses thereof” (Disc Medicine, Inc., priority 2018, dated 2025).

The assay concerns the target T1, Human Recombinant Matriptase 2 (Homo sapiens, UniProt Q8IU80).
T1 construct: purchased Enzo Life Sciences (an in-house preparation was also used) ALX-201-752-1
T1 sequence (Q8IU80 1-811): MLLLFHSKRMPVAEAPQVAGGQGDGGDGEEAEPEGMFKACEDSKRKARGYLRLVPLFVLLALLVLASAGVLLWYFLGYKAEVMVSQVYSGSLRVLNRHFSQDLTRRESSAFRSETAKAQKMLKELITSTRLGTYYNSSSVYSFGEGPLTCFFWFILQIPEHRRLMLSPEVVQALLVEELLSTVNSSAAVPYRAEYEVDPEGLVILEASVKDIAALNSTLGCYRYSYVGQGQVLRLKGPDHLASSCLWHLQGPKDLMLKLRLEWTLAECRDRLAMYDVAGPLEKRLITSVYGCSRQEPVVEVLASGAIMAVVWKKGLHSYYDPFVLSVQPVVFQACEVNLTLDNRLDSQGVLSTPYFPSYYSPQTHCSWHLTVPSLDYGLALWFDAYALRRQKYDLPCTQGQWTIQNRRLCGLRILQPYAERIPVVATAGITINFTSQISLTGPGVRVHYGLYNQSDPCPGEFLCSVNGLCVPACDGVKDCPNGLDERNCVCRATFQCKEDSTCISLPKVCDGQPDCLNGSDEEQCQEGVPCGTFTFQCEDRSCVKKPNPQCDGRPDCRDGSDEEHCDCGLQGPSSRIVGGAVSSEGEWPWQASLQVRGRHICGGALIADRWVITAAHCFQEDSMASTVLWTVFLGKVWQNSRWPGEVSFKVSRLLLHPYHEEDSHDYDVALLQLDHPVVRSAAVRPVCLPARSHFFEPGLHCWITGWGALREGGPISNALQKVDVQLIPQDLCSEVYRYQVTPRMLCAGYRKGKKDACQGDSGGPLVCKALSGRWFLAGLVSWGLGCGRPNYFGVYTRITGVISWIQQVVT
Description: Matriptase 2 fluorescence based inhibition assay, Method A (100 mM TRIS pH 9, 1 mg/mL BSA). The assay is classed as biochemical. Particulars: read-out: Mar-2 % inhibition at 1 uM. In outline: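 Enzyme (7 nM commercial or 15 nM in-house) preincubated 30 min with compound in 100 mM TRIS pH 9, 1 mg/mL BSA, 1% DMSO at 25° C. Boc-Gln-Ala-Arg-AMC substrate at 100 μM; fluorescence (Ex 360/Em 480 nm) read 60 min later. Screened at 1 and 10 μM; IC50 from variable-slope sigmoidal fit.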

By inhibition is commonly meant the percentage by which the read-out fell short of the control.

Read-outs that look alike come from different tables or passages of the source.

Take `N=C(N)c1ccc2cc(C(=O)N[C@@H]3CC=CCC3)n(Cc3ccc(C(N)=O)cc3)c2c1` [Compound I-189]: for the setting “1 uM, Assay Used A”, the inhibition at 1 µM fell in the range of 0 to 25%.
Turning to `N=C(N)c1ccc2cc(C(=O)NC3CCC(F)(F)CC3)n(Cc3ccc(C(N)=O)cc3)c2c1` [Compound I-190], the inhibition at 1 µM (1 uM, Assay Used A) lay in the range of 0 to 25%.
On the same count and under the same terms, the same measure for `N=C(N)c1ccc2cc(C(=O)NCC3CCCCC3)n(Cc3ccc(C(N)=O)cc3)c2c1` [Compound I-191]: 0 to 25%.
The same measure, in the same setting: in the case of `N=C(N)c1ccc2cc(C(=O)NCC3CCOCC3)n(Cc3ccc(C(N)=O)cc3)c2c1` [Compound I-192] it was 0 to 25%; in that of `C[C@H](NC(=O)c1cc2ccc(C(=N)N)cc2n1Cc1ccc(C(N)=O)cc1)C1CCCCC1` [Compound I-193], 0 to 25%; in that of `C[C@@H](NC(=O)c1cc2ccc(C(=N)N)cc2n1Cc1ccc(C(N)=O)cc1)C1CCCCC1` [Compound I-194], 0 to 25%.
On to `N=C(N)c1ccc2cc(C(=O)NCCC3CCCCC3)n(Cc3ccc(C(N)=O)cc3)c2c1` [Compound I-195], for which the inhibition at 1 µM (1 uM, Assay Used A) was 0 to 25%.
Still for that read-out and setting: in the case of `CC(C)N1CC[C@H](NC(=O)c2cc3ccc(C(=N)N)cc3n2Cc2ccc(C(N)=O)cc2)C1` [Compound I-196] it was 0 to 25%.
With `N=C(N)c1ccc2cc(C(=O)NC34CC5CC(CC(O)(C5)C3)C4)n(Cc3ccc(C(N)=O)cc3)c2c1` [Compound I-197], the inhibition at 1 µM (at 1 uM, Assay Used = A) lay in the range of 0 to 25%.
For `N=C(N)c1ccc2cc(C(=O)N[C@]34CC5CC(C[C@@](O)(C5)C3)C4)n(Cc3ccc(C(N)=O)cc3)c2c1` [Compound I-198], the inhibition at 1 µM (at 1 uM, Assay Used = A) was 0 to 25%.
Turning to `N=C(N)c1ccc2cc(C(=O)NC34CC5CC(CC(C5)C3)C4)n(Cc3ccc(C(N)=O)cc3)c2c1` [Compound I-200], for the setting “at 1 uM, Assay Used = A”, the inhibition at 1 µM lay within 0 to 25%.
Regarding `N=C(N)c1ccc2cc(C(=O)NC3Cc4ccccc4C3)n(Cc3ccc(C(N)=O)cc3)c2c1` [Compound I-201], the inhibition at 1 µM (at 1 uM, Assay Used = A) was 0 to 25%.
Still for that read-out and setting: in the case of `N=C(N)c1ccc2cc(C(=O)N[C@H]3CCc4ccccc43)n(Cc3ccc(C(N)=O)cc3)c2c1` [Compound I-202] it was 0 to 25%; in that of `N=C(N)c1ccc2cc(C(=O)N[C@@H]3c4ccccc4C[C@H]3O)n(Cc3ccc(C(N)=O)cc3)c2c1` [Compound I-203], 0 to 25%.
On the same count and under the same terms, the same measure for `N=C(N)c1ccc2cc(C(=O)N[C@H]3c4ccccc4C[C@H]3O)n(Cc3ccc(C(N)=O)cc3)c2c1` [Compound I-204]: 0 to 25%; for `N=C(N)c1ccc2cc(C(=O)N[C@H]3CCNC3)n(Cc3ccc(C(N)=O)cc3)c2c1` [Compound I-205]: 25 to 50%; for `CN1CCC(NC(=O)c2cc3ccc(C(=N)N)cc3n2Cc2ccc(C(N)=O)cc2)CC1` [Compound I-206]: 25 to 50%.
Same read-out and setting: in the case of `C[C@@H](O)CNC(=O)c1cc2ccc(C(=N)N)cc2n1Cc1ccc(C(N)=O)cc1` [Compound I-207] it was 0 to 25%; in that of `CC(C)(O)CNC(=O)c1cc2ccc(C(=N)N)cc2n1Cc1ccc(C(N)=O)cc1` [Compound I-208], 0 to 25%.
On to `CC[C@@H](CO)NC(=O)c1cc2ccc(C(=N)N)cc2n1Cc1ccc(C(N)=O)cc1` [Compound I-209], for which, where the note is “at 1 uM, Assay Used = A”, the inhibition at 1 µM fell in the range of 0 to 25%.
Take `N=C(N)c1ccc2c(O)c(C(=O)NCC3CCCCC3)n(Cc3ccc(C(N)=O)cc3)c2c1` [Compound I-212, 6-Carbamimidoyl-1-(4-carbamoylbenzyl)-N-(cyclohexylmethyl)-3-hydroxy-1H-indole-2-carboxamide]: the inhibition at 1 µM (at 1 uM, Assay Used = A) lay within 0 to 25%.
In the case of `N=C(N)c1ccc2c(Cl)c(C(=O)NCC3CCCCC3)n(Cc3ccc(C(N)=O)cc3)c2c1` [Compound I-213, 6-Carbamimidoyl-1-(4-carbamoylbenzyl)-3-chloro-N-(cyclohexylmethyl)-1H-indole-2-carboxamide], the inhibition at 1 µM (at 1 uM, Assay Used = A) fell in the range of 0 to 25%.
Same read-out and setting: in the case of `CC1CCC(NC(=O)c2c(Cl)c3ccc(C(=N)N)cc3n2Cc2ccc(C(N)=O)cc2)CC1` (stereo not drawn) [Compound I-214] it was 0 to 25%; in that of `CNC(=O)c1ccc(Cn2c(C(=O)NCC3CCCCC3)cc3ccc(C(=N)N)cc32)cc1` [Compound I-215, 6-Carbamimidoyl-N-(cyclohexylmethyl)-1-(4-(methylcarbamoyl)benzyl)-1H-indole-2-carboxamide], 0 to 25%; in that of `CN(C)C(=O)c1ccc(Cn2c(C(=O)NCC3CCCCC3)cc3ccc(C(=N)N)cc32)cc1` [Compound I-216, 6-Carbamimidoyl-N-(cyclohexylmethyl)-1-(4-(dimethylcarbamoyl)benzyl)-1H-indole-2-carboxamide], 0 to 25%.
Still for that read-out and setting: in the case of `N=C(N)c1ccc2cc(C(=O)NCC3CCCCC3)n(Cc3ccc(C(=O)NC4CC4)cc3)c2c1` [Compound I-217, 6-Carbamimidoyl-N-(cyclohexylmethyl)-1-(4-(cyclopropylcarbamoyl)benzyl)-1H-indole-2-carboxamide] it was 0 to 25%; in that of `CC1CCC(NC(=O)c2cc3ccc(C(=N)N)cc3n2Cc2ccc(C(=O)N(C)C)cc2)CC1` (stereo not drawn) [Compound I-218, 6-Carbamimidoyl-1-(4-(dimethylcarbamoyl)benzyl)-N-(4-methylcyclohexyl)-1H-indole-2-carboxamide], 0 to 25%; in that of `CC1CCC(NC(=O)c2cc3ccc(C(=N)N)cc3n2Cc2ccc(C(=O)NC3CC3)cc2)CC1` (stereo not drawn) [Compound I-219, 6-Carbamimidoyl-1-(4-(cyclopropylcarbamoyl)benzyl)-N-(4-methylcyclohexyl)-1H-indole-2-carboxamide], 0 to 25%.
For `CNC(=O)c1ccc(Cn2c(C(=O)NC3CCC(C)CC3)cc3ccc(C(=N)N)cc32)cc1` (stereo not drawn) [Compound I-220, 6-Carbamimidoyl-1-(4-(methylcarbamoyl)benzyl)-N-(4-methylcyclohexyl)-1H-indole-2-carboxamide], the inhibition at 1 µM (at 1 uM, Assay Used = A) lay in the range of 0 to 25%.
The same measure, in the same setting: the same measure for `CCNC(=O)c1ccc(Cn2c(C(=O)NC3CCC(C)CC3)cc3ccc(C(=N)N)cc32)cc1` (stereo not drawn) [Compound I-221, 6-Carbamimidoyl-1-(4-(ethylcarbamoyl)benzyl)-N-(4-methylcyclohexyl)-1H-indole-2-carboxamide]: 0 to 25%; for `N=C(N)c1ccc2cc(C(=O)NCC3CCCCC3)n(Cc3ccc(C(=O)NCCO)cc3)c2c1` [Compound I-222, 6-Carbamimidoyl-N-(cyclohexylmethyl)-1-(4-((2-hydroxyethyl)carbamoyl)benzyl)-1H-indole-2-carboxamide]: 0 to 25%; for `CC1CCC(NC(=O)c2cc3ccc(C(=N)N)cc3n2Cc2ccc(C(=O)NCCO)cc2)CC1` (stereo not drawn) [Compound I-223, 6-Carbamimidoyl-1-(4-((2-hydroxyethyl)carbamoyl)benzyl)-N-(4-methylcyclohexyl)-1H-indole-2-carboxamide]: 0 to 25%.
In the case of `CC1CCC(NC(=O)c2cc3ccc(C(=N)N)cc3n2Cc2ccc(C(=O)NCCN)cc2)CC1` (stereo not drawn) [Compound I-224, 1-(4-((2-Aminoethyl)carbamoyl)benzyl)-6-carbamimidoyl-N-(4-methylcyclohexyl)-1H-indole-2-carboxamide], under “at 1 uM, Assay Used = A”, the inhibition at 1 µM lay in the range of 0 to 25%.
Same read-out and setting: the same measure for `N=C(N)c1ccc2cc(C(=O)NCC3CCCCC3)n(Cc3ccc(C(=O)NCCN)cc3)c2c1` [Compound I-225, 1-(4-((2-Aminoethyl)carbamoyl)benzyl)-6-carbamimidoyl-N-(cyclohexylmethyl)-1H-indole-2-carboxamide]: 0 to 25%.
In the case of `N=C(N)c1ccc2cc(C(=O)NCC3CCCCC3)n(Cc3ccc(C(N)=O)cc3F)c2c1` [Compound I-227, 6-Carbamimidoyl-1-(2-Fluoro-4-carbamoyl-benzyl)-N-(cyclohexylmethyl)-1H-indole-2-carboxamide], the inhibition at 1 µM (at 1 uM, Assay Used = A) was in the range of 0 to 25%.
Regarding `N=C(N)c1ccc2cc(C(=O)NCC3CCCCC3)n(Cc3ccc(C(N)=O)cc3Cl)c2c1` [Compound I-228, 6-Carbamimidoyl-1-(2-Chloro-4-carbamoyl-benzyl)-N-(cyclohexylmethyl)-1H-indole-2-carboxamide], where the note is “at 1 uM, Assay Used = A”, the inhibition at 1 µM lay within 0 to 25%.
Still for that read-out and setting: the same measure for `N=C(N)c1ccc2cc(C(=O)NCC3CCCCC3)n(Cc3ccc(C(N)=O)c(Cl)c3)c2c1` [Compound I-229, 6-Carbamimidoyl-1-(3-Chloro-4-carbamoyl-benzyl)-N-(cyclohexylmethyl)-1H-indole-2-carboxamide]: 0 to 25%; for `N=C(N)c1ccc2cc(C(=O)NC3CCC(F)(F)CC3)n(Cc3cccc(C(N)=O)c3)c2c1` [Compound I-230, 6-Carbamimidoyl-1-(3-carbamoylbenzyl)-N-(4-difluorocyclohexyl)-1H-indole-2-carboxamide]: 0 to 25%.
On the same count and under the same terms, the same measure for `N=C(N)c1ccc2cc(C(=O)NCC3CCCCC3)n(Cc3ccc(B(O)O)cc3)c2c1` [Compound I-231]: 0 to 25%.
